In ChEMBL document CHEMBL5126539, “Recent development of BTK-based dual inhibitors in the treatment of cancers” (Eur J Med Chem, 2022):

Key:
[1] = target: T1, Tyrosine-protein kinase JAK3 (Homo sapiens, UniProt P52333); assay: Inhibition of recombinant JAK3 (unknown origin)
T1 sequence (P52333 whole entry): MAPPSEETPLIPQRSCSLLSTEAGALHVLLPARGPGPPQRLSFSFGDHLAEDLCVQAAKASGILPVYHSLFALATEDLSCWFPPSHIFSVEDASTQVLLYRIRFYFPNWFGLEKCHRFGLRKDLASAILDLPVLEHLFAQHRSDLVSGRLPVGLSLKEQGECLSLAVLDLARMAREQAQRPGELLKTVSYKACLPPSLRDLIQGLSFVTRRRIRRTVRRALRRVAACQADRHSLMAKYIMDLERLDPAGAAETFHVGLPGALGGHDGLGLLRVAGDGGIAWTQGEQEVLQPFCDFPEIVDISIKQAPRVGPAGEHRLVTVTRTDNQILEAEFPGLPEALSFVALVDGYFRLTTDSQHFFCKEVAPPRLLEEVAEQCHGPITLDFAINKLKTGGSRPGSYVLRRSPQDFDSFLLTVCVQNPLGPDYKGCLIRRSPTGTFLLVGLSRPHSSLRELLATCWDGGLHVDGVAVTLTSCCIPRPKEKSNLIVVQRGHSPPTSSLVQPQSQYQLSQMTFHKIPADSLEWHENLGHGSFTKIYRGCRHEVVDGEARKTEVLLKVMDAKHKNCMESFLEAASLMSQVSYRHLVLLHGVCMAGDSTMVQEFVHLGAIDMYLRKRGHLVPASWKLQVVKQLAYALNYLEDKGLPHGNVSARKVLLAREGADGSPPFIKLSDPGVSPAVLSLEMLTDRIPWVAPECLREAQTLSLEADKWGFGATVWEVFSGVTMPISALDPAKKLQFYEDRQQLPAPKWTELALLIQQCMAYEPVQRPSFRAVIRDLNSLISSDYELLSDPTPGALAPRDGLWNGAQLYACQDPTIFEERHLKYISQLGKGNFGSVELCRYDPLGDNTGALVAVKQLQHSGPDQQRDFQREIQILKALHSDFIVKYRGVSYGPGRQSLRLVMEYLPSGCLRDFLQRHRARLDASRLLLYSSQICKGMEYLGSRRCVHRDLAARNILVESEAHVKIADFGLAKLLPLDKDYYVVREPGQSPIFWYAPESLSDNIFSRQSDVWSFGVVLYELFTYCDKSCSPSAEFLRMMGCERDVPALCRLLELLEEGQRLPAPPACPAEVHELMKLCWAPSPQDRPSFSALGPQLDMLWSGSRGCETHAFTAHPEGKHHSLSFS

[2] = target: T2, Tyrosine-protein kinase BTK (Homo sapiens, UniProt Q06187); assay: Inhibition of BTK (unknown origin)
DOHH-2 [3] = assay: Cytotoxicity against human DOHH-2 cells expressing BTK and PI3kdelta assessed as inhibition of cell growth incubated for 72 hrs by celltiter-glo assay; format: functional, cell-based; settings: DOHH-2, 72 h
DOHH-2 [4] = assay: Antitumor activity against human DOHH-2 cells xenografted in CB17/SCID mouse assessed as reduction in tumor growth at 100 mg/kg, po administered twice daily for 30 days and measured twice a week relative to control; format: functional; set-up: scale not given: the % may be the effect or the level left; settings: time 30 day
Tubulin (Homo sapiens) = Tubulin (Homo sapiens) (UniProt P68371+Q9H4B7+P0DPH7+P68366+Q13509+Q71U36+P04350+Q3ZCM7+P07437+P68363+Q9BQE3+Q6PEY2+Q13885+Q9BVA1+Q9BUF5); assay: Inhibition of microtubule polymerization in human U-266 cells assessed as increase in phospho-Bcl2 expression at 10 uM measured upto 24 hrs by Western blot analysis relative to control; format: cell-based
[5] = target: T2, Tyrosine-protein kinase BTK; assay: Inhibition of N-terminal His6-tagged human full length recombinant BTK expressed in baculovirus infected Sf21 insect cells using YIYGSFK as substrate preincubated for 5 mins followed by 33p-labeled ATP addition and measured after 1 hr by thin layer chromatography
PC-3 = assay: Antitumor activity against human PC-3 cells xenografted in nude mouse assessed as inhibition of tumor growth at 10 mg/kg/day, ip administered for 42 days starting from 14 days post inoculation relative to control; format: functional; settings: PC-3, 1008 h, time 42 day, read-out: TGI
[6] = target: Tyrosine-protein kinase HCK (Homo sapiens, UniProt P08631); assay: Inhibition of HCK (unknown origin)
[7] = Inhibition of mTORC1 (unknown origin) expressed in HEK293T cells using 4EBP1 as substrate assessed as reduction in substrate phosphorylation preincubated for 30 mins followed by ATP addition and measured after 30 mins by Western blot analysis; set-up: species or system Homo sapiens
MV4-11 = assay: Antiproliferative activity against human MV4-11 cells assessed as inhibition of cell growth; format: functional, cell-based
MOLM-13 = assay: Antiproliferative activity against human MOLM-13 cells assessed as inhibition of cell growth; format: functional, cell-based
BaF3 [8] = assay: Antiproliferative activity against mouse BaF3 cells expressing wild type FLT3 assessed as inhibition of cell growth; format: functional, cell-based
BaF3 [9] = assay: Antiproliferative activity against mouse BaF3 cells expressing […] FLT3 ITD mutant assessed as inhibition of cell growth; format: functional, cell-based
BaF3 [10] = assay: Antiproliferative activity against mouse BaF3 cells expressing […] FLT3 […] mutant assessed as inhibition of cell growth; format: functional, cell-based
BaF3 [11] = assay: Antiproliferative activity against mouse BaF3 cells expressing […] FLT3 ITD/[…] double mutant assessed as inhibition of cell growth; format: functional, cell-based
BaF3 [12] = assay: Antiproliferative activity against mouse BaF3 cells expressing […] FLT3 ITD F691L mutant assessed as inhibition of cell growth; format: functional, cell-based
[13] = target: T2, Tyrosine-protein kinase BTK; assay: Inhibition of N-terminal His tagged human recombinant full length BTK expressed in baculovirus infected Sf9 insect cells using Poly (4:1 Glu, Tyr) Peptide as substrate at 0.5 uM incubated for 60 mins by ADP-glo reagent based luminescence assay relative to control
[14] = Cytotoxicity against human MM.1 cells assessed as inhibition of cell growth incubated for 48 hrs by MTT assay; format: functional, cell-based; settings: Mm1, 48 h
U-266 [15] = assay: Cytotoxicity against human U-266 cells assessed as inhibition of cell growth incubated for 48 hrs by MTT assay; format: functional, cell-based; settings: U-266, 48 h
RPMI-8226 = assay: Cytotoxicity against human RPMI-8226 cells assessed as inhibition of cell growth incubated for 48 hrs by MTT assay; format: functional, cell-based; settings: RPMI-8226, 48 h
U-266 [16] = assay: Antitumor activity against human U-266 cells xenografted in BALB/c nude mouse assessed as tumor growth inhibition at 1 mg/kg, ip administered twice weekly and measured for 4 weeks by digital caliper analysis relative to control; format: functional; settings: U-266, 672 h, read-out: TGI
[17] = target: T3, Cytoplasmic tyrosine-protein kinase BMX (Homo sapiens) (UniProt P51813); assay: Inhibition of BMX (unknown origin) assessed as residual activity at 200 nM relative to control
T3 sequence (whole entry): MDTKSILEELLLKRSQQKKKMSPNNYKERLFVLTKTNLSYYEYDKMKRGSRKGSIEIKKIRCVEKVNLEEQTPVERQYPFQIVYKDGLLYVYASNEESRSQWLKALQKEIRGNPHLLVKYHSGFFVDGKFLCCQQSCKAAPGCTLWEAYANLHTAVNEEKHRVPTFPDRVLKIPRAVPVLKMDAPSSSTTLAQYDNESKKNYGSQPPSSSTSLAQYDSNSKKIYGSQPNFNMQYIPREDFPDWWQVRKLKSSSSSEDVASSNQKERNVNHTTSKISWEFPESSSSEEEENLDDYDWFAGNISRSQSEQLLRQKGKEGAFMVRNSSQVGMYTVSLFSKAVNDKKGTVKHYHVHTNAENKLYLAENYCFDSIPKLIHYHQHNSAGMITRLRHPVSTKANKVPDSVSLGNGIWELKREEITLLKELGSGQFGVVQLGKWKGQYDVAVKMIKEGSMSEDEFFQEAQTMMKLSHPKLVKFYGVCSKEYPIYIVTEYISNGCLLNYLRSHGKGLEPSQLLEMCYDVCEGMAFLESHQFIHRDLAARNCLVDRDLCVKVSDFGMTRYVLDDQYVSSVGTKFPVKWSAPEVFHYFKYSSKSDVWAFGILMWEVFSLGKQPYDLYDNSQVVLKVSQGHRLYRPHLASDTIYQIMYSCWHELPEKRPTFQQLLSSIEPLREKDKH

[18] = target: T2, Tyrosine-protein kinase BTK; assay: Inhibition of BTK (unknown origin) assessed as residual activity at 200 nM relative to control
DOHH-2 [19] = assay: Antitumor activity against human DOHH-2 cells xenografted in CB17/SCID mouse assessed as reduction in tumor growth at 15 mg/kg, po administered once daily in combination with idelalisib at 25 mg/kg for 30 days and measured twice a week relative to control; format: functional; set-up: scale not given: the % may be the effect or the level left; settings: time 30 day
DOHH-2 [20] = assay: Antitumor activity against human DOHH-2 cells xenografted in CB17/SCID mouse assessed as reduction in tumor growth at 30 mg/kg, po administered once daily in combination with idelalisib at 50 mg/kg for 30 days and measured twice a week relative to control; format: functional; set-up: scale not given: the % may be the effect or the level left; settings: time 30 day
DOHH-2 [21] = assay: Antitumor activity against human DOHH-2 cells xenografted in CB17/SCID mouse assessed as reduction in tumor growth at 25 mg/kg, po administered twice daily in combination with ibrutinib at 15 mg/kg for 30 days and measured twice a week relative to control; format: functional; set-up: scale not given: the % may be the effect or the level left; settings: time 30 day
DOHH-2 [22] = assay: Antitumor activity against human DOHH-2 cells xenografted in CB17/SCID mouse assessed as reduction in tumor growth at 50 mg/kg, po administered twice daily in combination with ibrutinib at 30 mg/kg for 30 days and measured twice a week relative to control; format: functional; set-up: scale not given: the % may be the effect or the level left; settings: time 30 day

T2 sequence (Q06187 whole entry): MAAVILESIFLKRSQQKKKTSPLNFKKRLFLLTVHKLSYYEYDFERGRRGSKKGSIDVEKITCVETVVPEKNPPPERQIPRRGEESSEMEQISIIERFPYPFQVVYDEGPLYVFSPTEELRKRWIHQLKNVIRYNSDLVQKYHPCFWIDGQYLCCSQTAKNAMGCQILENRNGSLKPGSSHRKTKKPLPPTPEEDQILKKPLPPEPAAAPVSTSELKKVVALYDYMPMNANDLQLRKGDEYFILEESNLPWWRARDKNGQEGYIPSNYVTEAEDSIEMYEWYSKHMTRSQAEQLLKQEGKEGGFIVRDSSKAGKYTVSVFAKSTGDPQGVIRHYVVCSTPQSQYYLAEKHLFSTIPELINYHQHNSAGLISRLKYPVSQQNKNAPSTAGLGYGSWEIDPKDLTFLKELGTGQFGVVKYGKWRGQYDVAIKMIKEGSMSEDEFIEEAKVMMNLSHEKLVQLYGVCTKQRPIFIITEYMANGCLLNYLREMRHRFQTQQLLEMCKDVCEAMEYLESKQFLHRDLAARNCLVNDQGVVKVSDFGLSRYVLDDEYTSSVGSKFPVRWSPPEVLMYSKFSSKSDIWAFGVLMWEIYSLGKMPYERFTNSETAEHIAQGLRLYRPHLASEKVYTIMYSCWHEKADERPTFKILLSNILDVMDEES
Sequence of Tyrosine-protein kinase HCK (P08631 whole entry): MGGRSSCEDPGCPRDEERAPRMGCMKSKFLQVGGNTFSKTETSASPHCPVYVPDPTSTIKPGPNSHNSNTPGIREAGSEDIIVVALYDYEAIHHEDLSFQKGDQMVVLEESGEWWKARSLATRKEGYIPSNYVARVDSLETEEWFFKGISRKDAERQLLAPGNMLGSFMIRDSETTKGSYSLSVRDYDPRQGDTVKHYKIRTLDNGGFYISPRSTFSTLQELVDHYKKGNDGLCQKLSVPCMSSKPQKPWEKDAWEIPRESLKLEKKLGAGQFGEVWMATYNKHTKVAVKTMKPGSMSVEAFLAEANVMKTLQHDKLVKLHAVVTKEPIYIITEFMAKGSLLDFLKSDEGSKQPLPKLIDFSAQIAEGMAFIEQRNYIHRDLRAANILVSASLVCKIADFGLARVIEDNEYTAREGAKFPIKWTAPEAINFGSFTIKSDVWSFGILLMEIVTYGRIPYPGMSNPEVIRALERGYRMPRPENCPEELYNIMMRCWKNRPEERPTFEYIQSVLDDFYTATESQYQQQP

C=CC(=O)Nc1cccc(-c2c[nH]c3ncc(NC(=O)c4cccs4)cc23)c1
IC50 [1]: > 10000 nM | IC50 [2]: < 1 nM

Nc1ccc2c(c1)CC(n1nc(-c3cc(F)c4c(c3)NCCO4)c3c(N)ncnc31)C2 (stereo unspecified)
IC50 (DOHH-2 [3]): 1340 nM | Activity (DOHH-2 [4]): 45.2%

CC[C@]1(O)C[C@@H]2CN(CCc3c([nH]c4ccccc34)[C@@](C(=O)OC)(c3cc4c(cc3OC)N(C)[C@H]3[C@@](O)(C(=O)OC)[C@H](OC(C)=O)[C@]5(CC)C=CCN6CC[C@]43[C@@H]65)C2)C1
inhibition (Tubulin (Homo sapiens)): 66%

CC(C)Cc1nc2cc3c(cc2[nH]c1=O)nc(NC(=O)c1ccc(-c2ccncc2)cc1)n3CCCN1CCCCC1
IC50 [5]: 50 nM | inhibition in vivo at 10 mg/kg/day (PC-3): 70%

CN1CCN([C@H]2CC[C@H](n3nc(-c4ccc(Oc5ccccc5)cc4)c4c(N)ncnc43)CC2)CC1
IC50 [2]: 0.92 nM | IC50 [6]: < 0.5 nM

Nc1ccc(-c2ccc3ncc4ccc(=O)n(-c5cccc(C(F)(F)F)c5)c4c3c2)cn1
IC50 [7]: 0.25 nM

Cc1cnc(-c2ccc(-c3ccc(NC(=O)Nc4cccc(C(F)(F)F)c4)cc3F)c3c2C(=O)NC3)[nH]1
IC50 (MV4-11): 0.17 nM | IC50 (MOLM-13): 0.82 nM | IC50 (BaF3 [8]): 9.49 nM | IC50 (BaF3 [9]): 0.3 nM | IC50 (BaF3 [10]): 8.26 nM | IC50 (BaF3 [11]): 9.72 nM | IC50 (BaF3 [12]): 0.43 nM

N#CSCc1ccc(CN2C(=O)C(=O)c3cc(Br)cc(Br)c32)cc1
inhibition [13]: 50% | inhibition (Tubulin (Homo sapiens)): 77% | IC50 [14]: 500 nM | IC50 (U-266 [15]): 500 nM | IC50 (RPMI-8226): 500 nM | inhibition in vivo at 1 mg/kg (U-266 [16]): 50%

C=CC(=O)Nc1cccc(-c2c[nH]c3ncccc23)c1
Activity [17]: 2.7% | Activity [18]: 18.2%

C=CC(=O)N1CCC[C@@H](n2nc(-c3ccc(Oc4ccccc4)cc3)c3c(N)ncnc32)C1 [IBRUTINIB]
IC50 (DOHH-2 [3]): 23 nM | Activity (DOHH-2 [19]): 38.1% | Activity (DOHH-2 [20]): 57.9%

CC[C@H](Nc1ncnc2[nH]cnc12)c1nc2cccc(F)c2c(=O)n1-c1ccccc1 [IDELALISIB]
IC50 (DOHH-2 [3]): 860 nM | Activity (DOHH-2 [21]): 38.1% | Activity (DOHH-2 [22]): 57.9%
